Experimental data as given in patent publication US7605280B2, “Anthraquinone and its derivatives” (Biostatus Limited, priority 1998, dated 2009).

Tests used:
Test in all cases: FACScan (Cytometer C) flow cytometric analysis of DRAQ5-labelled cells
Format in all cases: cell-based, human
[1] = test system: Granulocytes; conditions: 20 μM DRAQ5, 5 min
Description: (§1) Suspension cultures were analysed by flow cytometry without washing. Human blood was obtained using routine venepuncture of a healthy donor and samples manipulated using standard haematological procedures for the isolation of mononuclear blood cells and surface antigen recognition using antibody panels (see Table 1).
(§2) Cells were analysed using one of four flow cytometers according to the excitation requirements. • Cytometer A: Single beam high power 647 nm krypton laser excitation: The system was a custom-built cytometer and incorporated an Innova 3000K krypton laser (Coherent Corp., Palo Alto, Calif., USA) tuned to the 647 nm line. Forward light scatter, 90° light scatter and fluorescence emissions were collected for 1×10^4 cells using the 90° light scatter parameter as the master signal. The optical system permitted the analysis of various fluorescence emission wavelengths including: >715 nm (termed low infra-red) and, as reported here >780 nm fluorescence (infra-red ). Forward and 90° light scatter were analysed for the identification of cell debris. Laser power was set at 200 mW and linear amplifiers were used for the fluorescence signals. The analysis optics included a 675 nm cold dichroic mirror, ambient laboratory temperature was approximately 12° C. and the sheath reservoir was maintained at 10° C. Filters were supplied by Melles Griot. Median, mean and mode parameters were calculated for the distribution of fluorescence intensity-values throughout a given cell population. In all experiments, median and mean values produced very similar results. Median values alone are reported since this parameter is less affected by the presence of highly fluorescent cells beyond the upper limit for quantification. • Cytometer B: Dual beam low power 633 nm/high power 488 nm laser excitation: The system was a FACS 440 cell sorter (Becton Dickinson Inc., Cowley, UK) incorporating a Spectra Physics argon ion laser (max 500 mW output), tuned to the 488 nm line (100 mW output), and a secondary Spectra Physics 156 helium-neon laser emitting at 633 nm (emitting <5 mW), with a temporal beam separation of about 30 μsec. Forward light scatter, 90° light scatter and fluorescence emissions were collected for 1×10^4 cells using the forward light scatter parameter as the master signal from the primary 488 nm beam, while side scatter was collected through a 488/10 nm band-pass filter. The analysis optics included: i) a cold dichroic mirror (transmitting >675 nm), ii) fluorescence from fluorescein excited by the 488 nm beam detected at a PMT guarded by a 535/15 nm band-pass filter with no signal delay, and iii) a red-sensitive PMT with an appropriate delay, additionally guarded by a 620 nm long-pass filter, to detect the transmitted beam of DRAQ5-associated fluorescence at wavelengths beyond 675 nm (high-red and extending into the infra red region of the spectrum) Forward and 90° light scatter were analysed to exclude any cell debris. All parameters were acquired at 256 channel resolution with Consort 30 software (Becton Dickinson) and subsequently analysed with WinMDI software (J. Trotter, La Jolla, Calif.). The system employed the same analysis optics when used in the single 488 nm beam mode but with no signal delay for the red-sensitive PMT. • Cytometer C: Single beam, low power 488 nm laser excitation: The system was a FACScan (Becton Dickinson; Inc., Cowley, UK) incorporating an argon ion laser (max 15 mW output), tuned to the 488 nm line. Forward light scatter, 90° light scatter and fluorescence emissions were collected for 1×10^4 cells using the forward light scatter parameter as the master signal. The standard analysis optics provided the FL1 […]/FL3 (red) PMT parameters with pulse analysis performed on the FL3 originating signals. • Cytometer D: Triple beam medium power 633 nm/medium power 488 nm/medium power multiline-UV laser excitation: […]

[2] = test system: Lymphocytes
Description: as §1, §2

[3] = test system: Monocytes
Description: as §1, §2

[4] = Preparation 3, 20 μM DRAQ5, 120 min
[5] = Preparation 3, 4.8 × 10^5/ml, 20 μM DRAQ5, 5 min
[6] = Preparation 3, 7.5 × 10^5/ml, 20 μM DRAQ5, 5 min
[7] = Preparation 3 Ficoll-isolated viable mononuclear blood cells, 2.5 × 10^5/ml, 20 μM DRAQ5, 5 min
[8] = Preparation 4 (Preparation 3 plus surface antigen analysis), 20 μM DRAQ5, 5 min
[9] = Preparation 5 whole blood, viable cells, 20 μM DRAQ5, 5 min
[10] = Preparation 6 whole blood, cells lysed and fixed, 20 μM DRAQ5, 5 min

CN(C)CCNc1ccc(O)c2c1C(=O)c1c(O)ccc(NCCN(C)C)c1C2=O [DRAQ5]
Mean fluorescence intensity (±sd) of gated population ([1]; Preparation 5 whole blood, viable cells): 248.4 ± 35.9
Mean fluorescence intensity (±sd) of gated population ([1]; Preparation 6 whole blood, cells lysed and fixed): 254.3 ± 31.1
Mean fluorescence intensity (±sd) of gated population [2, 4]: 299.1 ± 23.9
Mean fluorescence intensity (±sd) of gated population [2, 5]: 215.9 ± 26.3
Mean fluorescence intensity (±sd) of gated population [2, 6]: 234.1 ± 27.0
Mean fluorescence intensity (±sd) of gated population [2, 7]: 227.4 ± 24.5
Mean fluorescence intensity (±sd) of gated population [2, 8]: 261.6 ± 26.3
Mean fluorescence intensity (±sd) of gated population [2, 9]: 257.3 ± 35.0
Mean fluorescence intensity (±sd) of gated population [2, 10]: 228.5 ± 28.5
Mean fluorescence intensity (±sd) of gated population [3, 4]: 342.2 ± 22.4
Mean fluorescence intensity (±sd) of gated population [3, 5]: 301.8 ± 24.3
Mean fluorescence intensity (±sd) of gated population [3, 6]: 311.0 ± 30.9
Mean fluorescence intensity (±sd) of gated population [3, 7]: 302.9 ± 25.4
Mean fluorescence intensity (±sd) of gated population [3, 8]: 317.9 ± 27.3
Mean fluorescence intensity (±sd) of gated population [3, 9]: 274.6 ± 41.0
Mean fluorescence intensity (±sd) of gated population [3, 10]: 240.2 ± 28.1
enhanced staining potential of monocytes versus lymphocytes ([3]; Preparations 3 and 4): 1.14-1.4 fold
